Consider twelve molecules from patent publication EP3674287A1, “COCRYSTALS OF (R)-BACLOFEN” (Zaklady Farmaceutyczne "Polpharma" S.A., priority 2018, dated 2020).

Each structure is given as a SMILES string.

Data set [1] in a line: Preliminary solubility study of (R)-Baclofen in 18 solvents. The class given is physicochemical. Conditions: for Solubility: 40 volume. As for the experimental part:
A preliminary study of (R)-Baclofen solubility was performed using different solvents (18 solvents) in order to design a proper experimental space to obtain or detect a new crystalline form.
Solubility test were performed with 25 mg of (R)-Baclofen in a test tube with screw cap and magnetic stirring. The solvent was added in small portions of 2 volumes (mg/ml) at room temperature up to 40 volumes. After each addition, the sample was stirred for 2-5 minutes.

A short description of data set [2]: Chemical stability study under accelerated ICH storage conditions (HPLC). The data set is classed as physicochemical. To be noted: for Chemical stability (HPLC): 40°C/ 75 ± 5 % RH, during 0, 1, 2 and 4 weeks; for Impurity A+Impurity CA2 (HPLC % a/a) / Impurity A (HPLC % a/a): RRT 0.7; for Impurity A+Impurity CA2 (HPLC % a/a) / Impurity B + Impurity FA1 (HPLC % a/a) / Impurity SA1 (HPLC % a/a) / Impurity A (HPLC % a/a) / Impurity CA1 (HPLC % a/a): 40 °C / 75 ± 5 % RH; for Impurity B + Impurity FA1 (HPLC % a/a): RRT 0.3; for Impurity SA1 (HPLC % a/a): RRT 0.33; for Impurity CA1 (HPLC % a/a): RRT 0.48. On the procedure:
Sample concentration : 5mg/5ml in ACN/H2O-0.1 methane sulfonic acid 20:80 Injection Volume: 10 µl; Run Time: 20.0 minutes; Column: […]100, 4.6x150 mm;100A,5µm; Mobile phase: gradient: ACN/H2O- 0.1 methane sulfonic acid 20:80 / ACN (95:5) -(75:25) - (95:5) Column temp.: 40°C; and Flow rate: 1 ml/min.
Samples were taken periodically (0 (start), after 1, 2, and 4 weeks) and analyzed by HPLC.
Retention time of (R)-Baclofen under conditions described in the Section "Measuring instruments, conditions and protocols" above, is about 13 min and the relative retention times (RRT) of known impurities are given below.

Data set [3] can be described thus: Crystalline stability test under accelerated ICH storage conditions (XRPD). The data set is classed as physicochemical. As for the experimental part: The expression "crystalline stability" means that no conversion into another crystalline form occurs, as determined by XRPD. […]
Crystalline stability study of the new cocrystals found during the screening was performed under accelerated ICH storage conditions (40°C, 75±5 % RH) for 1 week and 4 weeks. The results are summarized in the Table 16: Table 16: Crystalline stability of cocrystals

A short description of data set [4]: Coformer pKa and ΔpKa. The data set is classed as physicochemical. To be noted: (R)-Baclofen versus coformer.
For data set [5] the following is noted: pKa of the coformer; cited from earlier work.
Data set [6] in a line: Solubility of prior-art crystal forms in water (EP2345634 B1). The data set is classed as physicochemical. Conditions: 25°C.

On to `NC[C@H](CC(=O)O)c1ccc(Cl)cc1` [(R)-Baclofen, (3R)-4-amino-3-(4-chlorophenyl)butanoic acid], for which the Solubility entry in data set [1] (Acetone, reflux) is “Insoluble”; in data set [1] (Acetonitrile, reflux), “Insoluble”; in data set [1] (DMF, reflux) it was “Soluble”; in data set [1] (DMSO, reflux) it was “Soluble”; in data set [1] (Dichloromethane, reflux), “Insoluble”; in data set [1] (Dioxane, reflux), “Insoluble”. For the same molecule, the Solubility result is recorded as “Insoluble” in data set [1] (Ethanol, reflux); “Insoluble” in data set [1] (Ethyl acetate, reflux); “Insoluble” in data set [1] (Heptane, reflux); “Insoluble” in data set [1] (Isobutyl acetate, reflux); “Insoluble” in data set [1] (Isopropyl alcohol, reflux); “Insoluble” in data set [1] (Methanol, reflux). Moreover, the Solubility entry in data set [1] (Methyl isobutyl ketone, reflux) is listed as “Insoluble”; in data set [1] (THF, reflux), “Insoluble”; in data set [1] (Tert-butyl methyl ether, reflux) it was “Insoluble”; in data set [1] (Toluene, reflux), “Insoluble”; in data set [1] (Water, reflux) it was “soluble”; in data set [1] (cyclohexane, reflux), “Insoluble”. For the same molecule, the Solubility entry in data set [1] (the other tested solvents (samples 4-18), even at reflux temperature) is “insoluble”. In addition, the “solubility in water and majority of commonly used organic solvents” value in data set [1] (overall conclusion of the solvent study) was “low solubility”.
For the molecule `COc1cc(C=CC(=O)O)ccc1O.NCC(CC(=O)O)c1ccc(Cl)cc1` [Form XII], the “Chemical stability (HPLC)” value in data set [2] was “stable”. For the same molecule, the “Impurity A+Impurity CA2 (HPLC % a/a)” value is recorded as 0.05 % a/a in data set [2] (Form XII table, week 0); 0.04 % a/a in data set [2] (Form XII table, week 1); 0.05 % a/a in data set [2] (Form XII table, week 2); 0.05 % a/a in data set [2] (Form XII table, week 4). The “Impurity B + Impurity FA1 (HPLC % a/a)” value in data set [2] (week 0) is reported as 0.07 % a/a; in data set [2] (week 1), 0.07 % a/a; in data set [2] (week 2) it was 0.08 % a/a; in data set [2] (week 4) it was 0.07 % a/a. The “Crystalline stability study 40 °C/ 75 ± 5 % RH After 1 week” value in data set [3] is listed as “Stable”. The “Crystalline stability study 40 °C/ 75 ± 5 % RH After 4 weeks” value in data set [3] is “Stable”; in data set [3] (listed as (R)-Baclofen-ferulic acid cocrystal Form XII), “stable”.
In the case of `NCC(CC(=O)O)c1ccc(Cl)cc1.NCC(CC(=O)O)c1ccc(Cl)cc1.O=C(O)C=CC(=O)O` (stereo not shown) [Form VII], the ΔpKa in data set [4] stood at 0.77. Moreover, in data set [3], the “Crystalline stability study 40 °C/ 75 ± 5 % RH After 1 week” value is “Unstable” and the “Crystalline stability study 40 °C/ 75 ± 5 % RH After 4 weeks” value was “Unstable”.
As for `COc1cc(/C=C/C(=O)O)ccc1O` [Ferulic acid, (E)-3-(4-hydroxy-3-methoxy-phenyl)prop-2-enoic acid], the “Coformer [pKa]” value in data set [5] was “Ferulic acid [pKa 4.26]”.
Turning to `NCC(CC(=O)O)c1ccc(Cl)cc1.O=C(O)c1ccccc1O` (stereo not shown) [Form VIII], the ΔpKa in data set [4] is listed as 0.83. The “Chemical stability (HPLC)” value in data set [2] is reported as “stable”. The “Impurity SA1 (HPLC % a/a)” value in data set [2] (week 0), in data set [2] (week 1), in data set [2] (week 2) and in data set [2] (week 4) was 0.05 % a/a each time. For the same molecule, the “Impurity A (HPLC % a/a)” value in data set [2] (week 0), in data set [2] (week 1), in data set [2] (week 2) and in data set [2] (week 4) was 0.04 % a/a throughout. Besides, in data set [3], the “Crystalline stability study 40 °C/ 75 ± 5 % RH After 1 week” value is on record as “Stable”. For the same molecule, the “Crystalline stability study 40 °C/ 75 ± 5 % RH After 4 weeks” value in data set [3] is reported as “Stable”; in data set [3] (listed as (R)-Baclofen-salicylic acid cocrystal Form VIII), “stable”.
Take `NCC(CC(=O)O)c1ccc(Cl)cc1.O=C(O)C=Cc1ccccc1` (stereo not shown) [Form IV]: the “Impurity A+Impurity CA2 (HPLC % a/a)” value was found to be 0.03 % a/a in data set [2] (week 0, listed as Cocrystal Form IV); 0.03 % a/a in data set [2] (week 1, listed as Cocrystal Form IV); 0.03 % a/a in data set [2] (week 2, listed as Cocrystal Form IV); 0.03 % a/a in data set [2] (week 4, listed as Cocrystal Form IV). In data set [3] (listed as (R)-Baclofen-cinnamic acid cocrystal Form IV), the “Crystalline stability study 40 °C/ 75 ± 5 % RH After 4 weeks” value was “stable”.
For `COc1cc(C=O)ccc1O` [Vanillin], in data set [5], the “Coformer [pKa]” value was “Vanillin [pKa 7.5]”.
For `NC[C@H](CC(=O)O)c1ccc(Cl)cc1` [Crystal Form B, (3R)-4-amino-3-(4-chlorophenyl)butanoic acid], the “solubility according to USP solubility test (descriptive term)” value in data set [6] is on record as “sparingly soluble”.
`COc1cc(C=O)ccc1O.NCC(CC(=O)O)c1ccc(Cl)cc1.NCC(CC(=O)O)c1ccc(Cl)cc1` (stereo not shown) [Form IX] displayed a ΔpKa in data set [4] of -3.70. In data set [3], the “Crystalline stability study 40 °C/ 75 ± 5 % RH After 1 week” value is “Unstable” and the “Crystalline stability study 40 °C/ 75 ± 5 % RH After 4 weeks” value was “Unstable”.
Consider `NCC(CC(=O)O)c1ccc(Cl)cc1.NCC(CC(=O)O)c1ccc(Cl)cc1.O=C(O)c1ccccc1` (stereo not shown) [Form II], for which, in data set [4], the ΔpKa was -0.3. Besides, the “Chemical stability (HPLC)” value in data set [2] is “stable”. Moreover, the “Impurity A (HPLC % a/a)” value in data set [2] (week 0), in data set [2] (week 1), in data set [2] (week 2) and in data set [2] (week 4) was 0.02 % a/a each time. Besides, the “Crystalline stability study 40 °C/ 75 ± 5 % RH After 1 week” value in data set [3] is “stable”. The “Crystalline stability study 40 °C/ 75 ± 5 % RH After 4 weeks” value in data set [3] is “Stable”; in data set [3] (listed as (R)-Baclofen-benzoic acid cocrystal Form II), “stable”.
With `O=C(O)/C=C/c1ccccc1` [Cinnamic acid, (2E)-3-phenylprop-2-enoic acid], the “Coformer [pKa]” value in data set [5] is “Cinnamic acid [pKa 4.10]”.
`NCC(CC(=O)O)c1ccc(Cl)cc1.O=C(O)C=Cc1ccccc1` (stereo not shown) [Form III] came in with a ΔpKa in data set [4] of -0.60. In addition, the “Chemical stability (HPLC)” value in data set [2] is “stable”. Besides, the “Impurity CA1 (HPLC % a/a)” value in data set [2] (week 0), in data set [2] (week 1), in data set [2] (week 2) and in data set [2] (week 4) was 0.03 % a/a each time. Further, the “Impurity A+Impurity CA2 (HPLC % a/a)” value in data set [2] (week 0, listed as Cocrystal Form III) stood at 0.04 % a/a; in data set [2] (week 1, listed as Cocrystal Form III) it was 0.04 % a/a; in data set [2] (week 2, listed as Cocrystal Form III) it was 0.04 % a/a; in data set [2] (week 4, listed as Cocrystal Form III) it was 0.04 % a/a. The “Crystalline stability study 40 °C/ 75 ± 5 % RH After 1 week” value in data set [3] is reported as “Stable”. Besides, the “Crystalline stability study 40 °C/ 75 ± 5 % RH After 4 weeks” value in data set [3] is listed as “Stable”; in data set [3] (listed as (R)-Baclofen-cinnamic acid cocrystal Form III) it was “stable”.
